# pIC50: −log10 of the molar value.
# Target: T1, 20S proteasome, β5 subunit (chymotrypsin-like activity) (Homo sapiens, UniProt P28074)
# T1 sequence (P28074 60-263): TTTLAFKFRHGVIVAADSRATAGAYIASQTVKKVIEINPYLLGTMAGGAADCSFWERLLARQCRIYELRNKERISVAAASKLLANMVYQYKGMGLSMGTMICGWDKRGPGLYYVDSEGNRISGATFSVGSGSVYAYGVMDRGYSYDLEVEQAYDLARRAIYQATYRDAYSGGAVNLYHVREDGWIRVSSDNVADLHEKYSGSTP
# Type: biochemical
row,Substance,pIC50
1,[Cd2(C11H10O2N)4(H2O)2]·2H2O,5.52
2,[Cd2(C12H12O2N)4(H2O)2]·2H2O [Cd1],5.59
3,[Cd(C7H4N2O2)(C8H6O2)2]·2H2O [Cd3],5.48

# — paper PMC3648619 (Journal of inorganic biochemistry, 2013)
